# Measured values as given in publication PMC5988692, “AZ304, a novel dual BRAF inhibitor, exerts anti-tumour effects in colorectal cancer independently of BRAF genetic status” (British Journal of Cancer, 2018).
# Where two headings read alike, the source gives them in different places.
# Tests used:
# CRAF = CRAF (Homo sapiens, UniProt P04049); test: AlphaScreen kinase assay (MEK1/2 phosphorylation); assay type: biochemical; details: wild type CRAF, ATP Km
# Procedure: For RAF kinases, detailed assay information was described in ref.[18] Briefly, the kinase activity of BRAF WT, BRAF V600E, or CRAF was measured using an AlphaScreen assay (Perkin Elmer, MA) monitoring MEK1/2 phosphorylation at Ser217/221. For CDK2 and CDK4 kinases, activity was also measured by AlphaScreen, monitoring phosphorylation of biotin Rb peptide at Ser780. Similarly, MAP3K7, CSF1R and JAK2 kinase activity was measured by phosphorylation of their biotinylated substrates MKK6 kinase dead protein at Ser271/Thr275, or tyrosine phosphorylation of pEY or Tyk2 Tyr1054/1055 peptides, respectively. CSK, IGF1R, EGFR, FGFR1 and SRC kinase activity was measured using a sandwich ELISA detecting phosphorylated poly EAY peptide with a HRP conjugated phosphotyrosine antibody and TMB substrate, while p38 kinase activity was measured by monitoring phosphorylation of MBP protein with radiolabeled ^33P-ATP in a filter binding format. All assays were screened under respective ATP Km conditions and inhibitor IC50s were derived from either 5 (RAF kinases, CDK2, CDK4, MAP3K7, JAK2), 10 (CSK, IGF1R, EGFR, FGFR1, SRC) or 11 (p38, CSF1R) point compound dose response.
# [1] = system: panel of human cancer cell lines with different BRAF and RAS genetic statuses; test: Cell proliferation assay, ranges over the cell panel; assay type: cell-based; details: 72 h, 3 days, read-out: GI50 values, range
# Procedure: The proliferation assays against a cell panel were performed as described in ref.[18] Briefly, the cells were treated with DMSO or multiple concentrations of AZ304 for 3 days. The cell growth was determined using the CellTiter 96 Aqueous One Cell Proliferation Assay (Promega, Madison, WI). […] The assays were done in triplicate across different plates.
# Anti-proliferative activity of AZ304 against a panel of cell lines with different BRAF and RAS genetic status. […] Cell growth was determined by MTS assay.
# Caco-2 cells = test: MTT proliferation assay; assay type: cell-based; details: Homo sapiens, Caco-2, BRAF WT, KRAS WT
# Procedure: (§1) The proliferation assays in selected colorectal cancer cell lines were measured using a 3-(4,5-dimethyl thiazol-2-yl)-2,5-diphenyl tetrazolium bromide (MTT) assay. First of all, cultured cells were seeded into 96-well plates (2000–5000 cells per well). After incubation for 24 h, the cells were pretreated with DMSO or AZ304 for 1 h. […] Cells were incubated for a further 48 or 72 h. For EGF stimulating assay, cells were incubated in reduced serum medium overnight and then treated with AZ304 or AZ304 + EGF (20 ng/ml) for 72 h. Twenty microliter of MTT solution (5 mg/ml) was added to each well followed by 4 h incubation at 37 °C. The cell culture medium was removed and the cells were lysed in 200 μl dimethylsulphoxide (DMSO) and the results were measured using a microplate reader (Model 550, Bio-Rad Laboratories, Hercules, CA, USA).
# DiFi cells = test: MTT proliferation assay; assay type: cell-based; details: Homo sapiens, BRAF WT, KRAS WT
# Procedure: as §1
# HT-29 cells = test: MTT proliferation assay; assay type: cell-based; details: Homo sapiens, HT-29, BRAF MT (V600E), KRAS WT
# Procedure: as §1
# RKO cells = test: MTT proliferation assay; assay type: cell-based; details: Homo sapiens, BRAF MT (V600E), KRAS WT
# Procedure: as §1
# Caco-2 xenografts = test: Xenograft study (tumour growth, immunohistochemistry); assay type: in vivo, athymic BALB/c nude mice
# Procedure: (§2) All in vivo experiments were performed in accordance with Institutional Review Board of China Medical University guidelines. Female 4–6 weeks old athymic BALB/c nude mice were purchased from Shanghai SLAC Laboratory Animal Centre (Shanghai, China). RKO/Caco-2 cells (1 × 10^7) in 200 μl PBS were injected subcutaneously into the right scapular region of mice. […] Tumours were measured with a caliper every 2 days, so did body weights. Tumour volume was calculated using the formula V = 1/2 (width^2 × length). Mice were terminated by CO2 inhalation when the tumour diameters reached 1.5 cm, according to the protocol filed with the Guidance of Institutional Animal Care and Use Committee of China Medical University.
# (§3) Tumours were formalin-fixed, paraffin-embedded and prepared as described in our previous study for staining with haematoxylin and eosin.[19] […] The staining was evaluated by scanning the entire tissue specimen under low magnification (×10) and confirmed under high magnification (×20 and ×40). The protein expression was visualised and classified based on the percentage of positive cells and the intensity of staining. From each section, five visual fields were randomly selected. The degree of protein expression was based on the percentage of positive cells and the intensity of staining. Staining intensity was scored as 0 (no staining), 1 (low staining), 2 (intermediate staining), and 3 (high staining). For the staining area, ≤5%, 5–25%, 26–50, 51–75% >75% were recorded as 0, 1, 2, 3 and 4 points, respectively. Histological score = staining intensity × staining area. A score 0 was classified as negative (−), 1–4 points as weakly positive (+), 6–12 points as a strong positive (++). Final scores were assigned by two independent pathologists.
# (§4) Student’s t-tests were used for statistical analyses. Data are plotted as mean ± SD. […] Tumours were harvested 4 h after dosing on day 10
# RKO xenografts = test: as above; assay type: in vivo, athymic BALB/c nude mice
# Procedure: as §2, §3, §4
# [2] = Xenograft study, animal health and body weight; assay type: in vivo; details: RKO and Caco-2 xenograft mice, 10 days treatment
# Procedure: as §2
# Supplementary Figure 2 Weights of xenografts from RKO and Caco-2 cells was measured every 2 days.
# [3] = 48 h, read-out: GI50 (μM) of AZ304 48 h
# [4] = 72 h, read-out: GI50 (μM) of AZ304 72 h
# [5] = Caco-2 xenograft tumours, day 10, 4 h after dosing, score = staining intensity × staining area
# [6] = RKO xenograft tumours, day 10, 4 h after dosing, score = staining intensity × staining area
# Sequence of CRAF (P04049 349-609 limits assumed): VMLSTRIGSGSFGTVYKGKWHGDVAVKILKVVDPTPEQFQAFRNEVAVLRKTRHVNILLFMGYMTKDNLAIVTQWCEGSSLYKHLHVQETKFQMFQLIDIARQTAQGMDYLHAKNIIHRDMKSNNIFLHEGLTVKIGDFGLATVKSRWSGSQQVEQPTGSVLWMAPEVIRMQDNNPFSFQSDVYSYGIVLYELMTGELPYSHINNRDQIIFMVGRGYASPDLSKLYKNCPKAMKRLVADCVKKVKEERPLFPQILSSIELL
compound,measurement,setting,value
COc1ccc2c(Nc3cc(NC(=O)c4cccc(C(C)(C)C#N)c4)ccc3C)ncnc2c1 [AZ304],IC50,CRAF,68 nM
same,GI50,[1]; mutant BRAF cell lines,80 to 7720 nM
same,GI50,[1]; mutant RAS cell lines,900 to 16700 nM
same,GI50,[1]; wild type BRAF/RAS cell lines,430 to 11700 nM
same,GI50,Caco-2 cells; [3],1.76 µM
same,GI50,Caco-2 cells; [4],0.377 µM
same,GI50,DiFi cells; [3],4.99 µM
same,GI50,DiFi cells; [4],0.635 µM
same,GI50,HT-29 cells; [3],3.9 µM
same,GI50,HT-29 cells; [4],0.389 µM
same,GI50,RKO cells; [3],4.54 µM
same,GI50,RKO cells; [4],0.503 µM
same,Ki67 histological score,Caco-2 xenografts; [5],3.2 ±0.84
same,p-AKT histological score,Caco-2 xenografts; [5],6.8 ±1.10
same,p-EGFR histological score,Caco-2 xenografts; [5],10.6 ±1.95
same,p-ERK histological score,Caco-2 xenografts; [5],4.8 ±1.10
same,tumour growth,"Caco-2 xenografts; Caco-2 xenograft, AZ304 10 mg/kg oral twice daily, Cetuximab 40 mg/kg i.p. twice per week, 10 days, vs vehicle",reduced tumour growth
same,Ki67 histological score,RKO xenografts; [6],4.8 ±1.10
same,p-AKT histological score,RKO xenografts; [6],4.2 ±2.28
same,p-EGFR histological score,RKO xenografts; [6],10 ±1.87
same,p-ERK histological score,RKO xenografts; [6],3.2 ±1.10
same,tumour growth,"RKO xenografts; RKO xenograft, AZ304 10 mg/kg oral twice daily, Cetuximab 40 mg/kg i.p. twice per week, 10 days, vs vehicle",reduced tumour growth
same,"tolerability (animal health, body weight)",[2],without obvious toxicity
